Experimental data reported in patent publication US9540392B2, “Thienopyrimidines” (BAYER PHARMA AKTIENGESELLSCHAFT, priority 2012, dated 2017).

Target: T1, human full-length MKNK1 (Homo sapiens, UniProt Q9BUB5, T385D)
T1 construct: GST (N); purchased Carna Biosciences 02-145; host or cells: insect cells (baculovirus expression system)
Assay: MKNK1 kinase high ATP assay (TR-FRET)
Type: biochemical
Settings: 2 mM ATP, after preincubation with MKNK1; read-out: MKNK1 IC50 (MKNK1 high ATP)
In short: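 Compound was preincubated 15 min at 22° C. with MKNK1 in 50 mM HEPES pH 7.5, 5 mM MgCl2, 1.0 mM DTT, then the reaction ran 30 min at 22° C. with 2 mM ATP and 0.06 μM biotinylated peptide (final).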

T1 sequence (Q9BUB5 1-424 isoform Q9BUB5-2 T344D): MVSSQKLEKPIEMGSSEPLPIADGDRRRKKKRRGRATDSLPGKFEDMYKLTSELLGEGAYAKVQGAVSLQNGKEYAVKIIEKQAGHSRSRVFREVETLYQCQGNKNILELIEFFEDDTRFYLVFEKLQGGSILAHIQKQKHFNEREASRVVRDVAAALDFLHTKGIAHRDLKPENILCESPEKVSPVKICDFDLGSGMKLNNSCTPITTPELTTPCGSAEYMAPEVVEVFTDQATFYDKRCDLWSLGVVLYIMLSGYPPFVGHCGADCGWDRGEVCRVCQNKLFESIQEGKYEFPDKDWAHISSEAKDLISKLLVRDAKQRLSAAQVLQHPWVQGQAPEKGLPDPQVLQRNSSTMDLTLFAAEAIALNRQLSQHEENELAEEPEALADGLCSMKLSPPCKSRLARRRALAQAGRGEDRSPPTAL

Row | SMILES | IC50 [nM]
1 | O=C(C1CCc2c(sc3ncnc(Nc4ccc5[nH]ncc5c4)c23)C1)N1CCN(c2ccccn2)CC1 (racemic) [Example 87, (RS)-[4-(1H-indazol-5-ylamino)-5,6,7,8-tetrahydro[1]benzothieno[2,3-d]pyrimidin-7-yl][4-(pyridin-2-yl)piperazin-1-yl]methanone] | 20.6
2 | O=C(O)C1CCc2c(sc3ncnc(Nc4cc5cn[nH]c5cc4F)c23)C1 (centres unmarked) [Example 55, 4-[(6-Fluoro-1H-indazol-5-yl)amino]-5,6,7,8-tetrahydro[1]benzothieno[2,3-d]pyrimidine-7-carboxylic acid] | 37
3 | O=C(C1CCc2c(sc3ncnc(Nc4ccc5[nH]ncc5c4)c23)C1)N1CCCC(CO)C1 (racemic) [Example 88, (RS)-[3-(hydroxymethyl)piperidin-1-yl][4-(1H-indazol-5-ylamino)-5,6,7,8-tetrahydro[1]benzothieno[2,3-d]pyrimidin-7-yl]methanone] | 9.9
4 | O=C(NCCc1cccs1)C1CCc2c(sc3ncnc(Nc4ccc5[nH]ncc5c4)c23)C1 (racemic) [Example 116, (RS)-4-(1H-indazol-5-ylamino)-N-[2-(thiophen-2-yl)ethyl]-5,6,7,8-tetrahydro[1]benzothieno[2,3-d]pyrimidine-7-carboxamide] | 5.8
5 | COCCN1CCN(C(=O)C2CCc3c(sc4ncnc(Nc5ccc6[nH]ncc6c5)c34)C2)CC1 (racemic) [Example 133, (RS)-[4-(1H-indazol-5-ylamino)-5,6,7,8-tetrahydro[1]benzothieno[2,3-d]pyrimidin-7-yl][4-(2-methoxyethyl)piperazin-1-yl]methanone] | 21.4
6 | O=C(C1CCc2c(sc3ncnc(Nc4ccc5[nH]ncc5c4)c23)C1)N1CCN(c2ccccc2)CC1 (racemic) [Example 106, (RS)-[4-(1H-indazol-5-ylamino)-5,6,7,8-tetrahydro[1]benzothieno[2,3-d]pyrimidin-7-yl](4-phenylpiperazin-1-yl)methanone] | 14.5
7 | CN(C(=O)C1CCc2c(sc3ncnc(Nc4ccc5[nH]ncc5c4)c23)C1)c1ccccc1 (racemic) [Example 91, (RS)-4-(1H-indazol-5-ylamino)-N-methyl-N-phenyl-5,6,7,8-tetrahydro[1]benzothieno[2,3-d]pyrimidine-7-carboxamide] | 6.6
8 | O=C(C1CCc2c(sc3ncnc(Nc4ccc5[nH]ncc5c4)c23)C1)N1CCN(C2CCCC2)CC1 (racemic) [Example 131, (RS)-(4-cyclopentylpiperazin-1-yl)[4-(1H-indazol-5-ylamino)-5,6,7,8-tetrahydro[1]benzothieno[2,3-d]pyrimidin-7-yl]methanone] | 13.5
9 | COC(=O)N1CCN(C(=O)C2CCc3c(sc4ncnc(Nc5ccc6[nH]ncc6c5)c34)C2)CC1 (racemic) [Example 160, (RS)-methyl4-{[4-(1H-indazol-5-ylamino)-5,6,7,8-tetrahydro[1]benzothieno[2,3-d]pyrimidin-7-yl]carbonyl}piperazine-1-carboxylate] | 31.1
10 | O=C(NC1CCOCC1)C1CCc2c(sc3ncnc(Nc4ccc5[nH]ncc5c4)c23)C1 (racemic) [Example 123, (RS)-4-(1H-indazol-5-ylamino)-N-(tetrahydro-2H-pyran-4-yl)-5,6,7,8-tetrahydro[1]benzothieno[2,3-d]pyrimidine-7-carboxamide] | 11.3
11 | Cn1nccc1CNC(=O)C1CCc2c(sc3ncnc(Nc4ccc5[nH]ncc5c4)c23)C1 (racemic) [Example 136, (RS)-4-(1H-indazol-5-ylamino)-N-[(1-methyl-1H-pyrazol-5-yl)methyl]-5,6,7,8-tetrahydro[1]benzothieno[2,3-d]pyrimidine-7-carboxamide] | 7.6
12 | CCNC(=O)C1CCc2c(sc3ncnc(Nc4ccc5[nH]ncc5c4)c23)C1 (centres unmarked) [Example 46, N-Ethyl-4-(1H-indazol-5-ylamino)-5,6,7,8-tetrahydro[1] benzothieno [2,3-d]pyrimidine-7-carboxamide] | 10
13 | Cn1cc(CNC(=O)C2CCc3c(sc4ncnc(Nc5ccc6[nH]ncc6c5)c34)C2)cn1 (racemic) [Example 158, (RS)-4-(1H-indazol-5-ylamino)-N-[(1-methyl-1H-pyrazol-4-yl)methyl]-5,6,7,8-tetrahydro[1]benzothieno[2,3-d]pyrimidine-7-carboxamide] | 16.5
14 | O=C(NCc1cc[nH]n1)C1CCc2c(sc3ncnc(Nc4ccc5[nH]ncc5c4)c23)C1 (racemic) [Example 139, (RS)-4-(1H-indazol-5-ylamino)-N-(1H-pyrazol-3-ylmethyl)-5,6,7,8-tetrahydro[1]benzothieno[2,3-d]pyrimidine-7-carboxamide] | 6.9
15 | CC1CCN(CCN(C)C(=O)C2CCc3c(sc4ncnc(Nc5ccc6[nH]ncc6c5)c34)C2)CC1 (racemic) [Example 169, (RS)-4-(1H-indazol-5-ylamino)-N-methyl-N-[2-(4-methylpiperidin-1-yl)ethyl]-5,6,7,8-tetrahydro[1]benzothieno[2,3-d]pyrimidine-7-carboxamide] | 11.1
16 | CC1CCN(C(=O)C2CCc3c(sc4ncnc(Nc5ccc6[nH]ncc6c5)c34)C2)CC1 (racemic) [Example 105, (RS)-[4-(1H-indazol-5-ylamino)-5,6,7,8-tetrahydro[1]benzothieno[2,3-d]pyrimidin-7-yl](4-methylpiperidin-1-yl)methanone] | 16.8
17 | O=C(Nc1cccnc1)C1CCc2c(sc3ncnc(Nc4ccc5[nH]ncc5c4)c23)C1 (racemic) [Example 100, (RS)-4-(1H-indazol-5-ylamino)-N-(pyridin-3-yl)-5,6,7,8-tetrahydro[1]benzothieno[2,3-d]pyrimidine-7-carboxamide] | 7.5
18 | CN1CCN(C(=O)C2CCc3c(sc4ncnc(Nc5ccc6[nH]ncc6c5)c34)C2)CC1 (centres unmarked) [Example 8, [4-(1H-Indazol-5-ylamino)-5,6,7,8-tetrahydro[1]benzothieno[2,3-d]pyrimidin-7-yl](4-methylpiperazin-1-yl)methanone] | 11
19 | O=C(NCc1ccsc1)C1CCc2c(sc3ncnc(Nc4ccc5[nH]ncc5c4)c23)C1 (racemic) [Example 151, (RS)-4-(1H-indazol-5-ylamino)-N-(thiophen-3-ylmethyl)-5,6,7,8-tetrahydro[1]benzothieno[2,3-d]pyrimidine-7-carboxamide] | 3.2
20 | Cn1ccc(NC(=O)C2CCc3c(sc4ncnc(Nc5ccc6[nH]ncc6c5)c34)C2)n1 (racemic) [Example 140, (RS)-4-(1H-indazol-5-ylamino)-N-(1-methyl-1H-pyrazol-3-yl)-5,6,7,8-tetrahydro[1]benzothieno[2,3-d]pyrimidine-7-carboxamide] | 12.4

More lines, now with the values ahead:

Row | IC50 [nM] | SMILES
21 | 0.4 | CCOc1cc2[nH]ncc2cc1Nc1ncnc2sc3c(c12)CCC(C(=O)N1CCCC(C#N)C1)C3 (racemic) [Example 241, (RS)-1-({4-[(6-Ethoxy-1H-indazol-5-yl)amino]-5,6,7,8-tetrahydro[1]benzothieno[2,3-d]pyrimidin-7-yl}carbonyl)piperidine-3-carbonitrile]
22 | 3.3 | CCOc1cc2[nH]ncc2cc1Nc1ncnc2sc3c(c12)CCC(C(=O)N1CC2(CCS2(=O)=O)C1)C3 (racemic) [Example 263, (RS)-(1,1-Dioxido-1-thia-6-azaspiro[3.3]hept-6-yl){4-[(6-ethoxy-1H-indazol-5-yl)amino]-5,6,7,8-tetrahydro[1]benzothieno[2,3-d]pyrimidin-7-yl}methanone]
23 | 0.5 | CCOc1cc2[nH]ncc2cc1Nc1ncnc2sc3c(c12)CCC(C(=O)N1CC[C@@H](O)C1)C3 (mixture of isomers) [Example 233, {(7RS)-4-[(6-Ethoxy-1H-indazol-5-yl)amino]-5,6,7,8-tetrahydro[1]benzothieno[2,3-d]pyrimidin-7-yl}[(3R)-3-hydroxypyrrolidin-1-yl]methanone]
24 | 19.8 | COc1cc2[nH]ncc2cc1Nc1ncnc2sc3c(c12)CCC(C(=O)N1CC(OC(=O)N(C)C)C1)C3 (racemic) [Example 275, (RS)-1-({4-[(6-Methoxy-1H-indazol-5-yl)amino]-5,6,7,8-tetrahydro[1]benzothieno[2,3-d]pyrimidin-7-yl}carbonyl)azetidin-3-yl dimethylcarbamate]
25 | 0.5 | CC(C)Oc1cc2[nH]ncc2cc1Nc1ncnc2sc3c(c12)CCC(C(=O)N1CCC1)C3 (racemic) [Example 219, (RS)-Azetidin-1-yl(4-{[6-(propan-2-yloxy)-1H-indazol-5-yl]amino}-5,6,7,8-tetrahydro[1]benzothieno[2,3-d]pyrimidin-7-yl)methanone]
26 | 0.4 | COc1cc2[nH]ncc2cc1Nc1ncnc2sc3c(c12)CCC(C(=O)N1CCC1)C3 (racemic) [Example 177, (RS)-Azetidin-1-yl{4-[(6-methoxy-1H-indazol-5-yl)amino]-5,6,7,8-tetrahydro[1]benzothieno[2,3-d]pyrimidin-7-yl}methanone]
27 | 1.2 | CC(C)Oc1cc2[nH]ncc2cc1Nc1ncnc2sc3c(c12)CCC(C(=O)N1CCOCC1)C3 (racemic) [Example 218, (RS)-Morpholin-4-yl(4-{[6-(propan-2-yloxy)-1H-indazol-5-yl]amino}-5,6,7,8-tetrahydro[1]benzothieno[2,3-d]pyrimidin-7-yl)methanone]
28 | 15 | CN(C)C(=O)C1CCc2c(sc3ncnc(Nc4cc5cn[nH]c5cc4OC(F)(F)F)c23)C1 (racemic) [Example 249, (RS)—N,N-Dimethyl-4-{[6-(trifluoromethoxy)-1H-indazol-5-yl]amino}-5,6,7,8-tetrahydro[1]benzothieno[2,3-d]pyrimidine-7-carboxamide]
29 | 0.2 | CC(C)Oc1cc2[nH]ncc2cc1Nc1ncnc2sc3c(c12)CCC(C(=O)N1CC(C#N)C1)C3 (racemic) [Example 208, (RS)-1-[(4-{[6-(Propan-2-yloxy)-1H-indazol-5-yl]amino}-5,6,7,8-tetrahydro[1]benzothieno[2,3-d]pyrimidin-7-yl)carbonyl]azetidine-3-carbonitrile]
